According to patent US5373020A, “Substituted 5-(2-((2-aryl-2-hydroxyethyl)amino)propyl)-1,3-benzodioxoles” (American Cyanamid Company, priority 1993, dated 1994):
Where a name gives a salt, the structure may show the parent alone.

Assays:
β1-receptors = molecular target: T1, β1-receptors (Cavia porcellus, UniProt H0W3H1); test: Effect on heart rate of isolated right atria (β1-effect); design: species or system guinea pig
T1 construct: from tissue; host or cells: guinea pig right atria
Method: (§1) β-Adrenergic receptors can be divided into β1, β2 and β3 -subtypes. Activation of β1 -receptors invokes increases in heart rate while activation of β2 -receptors stimulates glycogen breakdown in muscle and thereby prevents glycogen synthesis. Activation of β3 -receptors stimulates lipolysis (the breakdown of adipose tissue triglycerides to glycerol and free fatty acids), and thereby promotes the loss of fat mass.
Selectivity of a compound was determined using the following procedures. The effect on heart rate (β1 -effect) was determined using isolated right atria. […] The right atria were dissected and clamped at one end to a tissue holder and electrode assembly (MRA Corp.) and tied at the other end to a force-displacement transducer (Gould-Statham, Burco). The tissues were maintained at 32° C. in a 50 ml capacity glass chamber (MRA Corp.) preloaded with 0.5 g tension. Heart rate was monitored by a Grass polygragh. […] The increase in heart rate was calculated and considered to be the maximum response for that tissue. The tissues were then washed and allowed to equilibrate for 90 minutes. Cumulative concentration-response curves were then determined for each compound or vehicle. All responses were measured 5 minutes post-exposure.

β2-receptors = molecular target: T2, β2-receptors (Mus musculus, UniProt P18762); test: Inhibition of insulin-mediated incorporation of 14C-glucose into glycogen in isolated soleus muscle (β2-effect)
T2 construct: Soleus muscle from mice were dissected; from tissue; host or cells: mouse soleus muscle
T2 sequence (P18762 whole entry): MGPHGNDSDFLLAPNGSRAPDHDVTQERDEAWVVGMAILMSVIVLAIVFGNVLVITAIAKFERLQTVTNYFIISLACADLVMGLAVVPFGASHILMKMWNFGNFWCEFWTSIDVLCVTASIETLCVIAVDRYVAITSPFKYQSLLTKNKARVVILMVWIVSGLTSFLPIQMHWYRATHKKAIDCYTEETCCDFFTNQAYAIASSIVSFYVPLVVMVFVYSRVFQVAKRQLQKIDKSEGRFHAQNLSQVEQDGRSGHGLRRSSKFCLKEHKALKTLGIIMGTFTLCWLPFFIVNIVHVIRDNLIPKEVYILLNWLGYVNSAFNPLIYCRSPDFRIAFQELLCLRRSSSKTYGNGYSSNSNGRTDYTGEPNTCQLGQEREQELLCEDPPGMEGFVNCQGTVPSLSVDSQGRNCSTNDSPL
Method: as §1
The β2 -effect of the compounds was determined by their ability to inhibit the insulin-mediated incorporation of ^14 C-glucose into glycogen in isolated muscle. Soleus muscle from mice were dissected, tied at each end, and placed in a clamp to maintain tension. The clamped muscle was added to a vial that contained 2 ml of KHB with 1.5% bovine serum albumin, 0.3 mU/ml insulin, 5 mM (U^-14 C) glucose, and the appropriate additions of compound or vehicle. The vial was gassed with 95% O2 -5% CO2, capped, and the tissue incubated for one hour in a rotating water bath at 37° C. The muscle was then removed, rinsed in ice-cold saline, blotted and weighed. It was then added to 1 ml of 30% KOH containing 5 mg/ml of oyster glycogen, boiled for 10 minutes, and 0.4 ml of 2% Na2 SO4 and 3.2 ml of 100% ethanol added. After standing overnight at 4° C., the glycogen was pelleted by centrifugation, washed once with 66% ethanol, and repelleted. The pellet was dissolved in 1 ml of water and the amount of radioactivity present determined by liquid scintillation.

ob/ob mice = test: Change in weight and food consumption, compound in chow, obese mice; type: in vivo, mouse (C57 B1/6J ob/ob)
Method: (§2) The compounds of this invention were tested for hypoglycemic and anti-obesity activity according to the following procedure.
(§3) Obese mice (C57 B1/6J (ob/ob)), and/or diabetic mice (C57 B1/KsJ (db/db)) were obtained from Jackson Laboratories, Bar Harbor, Maine. Obese rats (fa/fa) were obtained from Charles River Laboratories, Wilmington, Mass. Obese mice were 8 weeks of age and diabetic mice were 9 weeks of age at the start of the test. Obese rats were 12-14 weeks of age at the start.
(§4) The test compounds were dissolved in methanol, mixed with powdered Purina rodent chow on a weight of compound to weight of chow basis and thoroughly dried.
(§5) Groups of 6 control mice or rats received vehicle (methanol) treated chow.
(§6) Groups of 6 test mice were fed ad libitum for up to seven weeks and food consumption was measured daily by weighing the food bins before and after the addition of fresh chow. Thus, a 40 g mouse, fed the test compound at a concentration of 0.02 percent of the diet, would receive a dose of 20 mg/kg/day if it ate 4 g of chow per day.
(§7) The mice or rats were weighed before the first treatment and once at the end of each indicated treatment period.

db/db mice = test: Plasma glucose, compound in chow, diabetic mice; type: in vivo, mouse (C57 B1/KsJ db/db)
Method: as §2, §3, §4, §5, §6, §7
Blood samples were collected before the first treatment and once at the end of each indicated treatment period by retro-orbital puncture using heparinized capillary tubes.
Plasma was separated by centrifugation in a Beckman microfuge for 5 minutes. Plasma glucose concentrations were determined with the Beckman glucose analyzer which uses a glucose oxidase method.

fa/fa rats = test: Change in weight and food consumption, compound in chow, obese rats; type: in vivo, rat (fa/fa)
Method: as §2, §3, §4, §5
Groups of 6 test rats were fed 25 g of chow per day for one month. Except for the first day or two, they consumed all their food each day. When these animals are fed ad libitum, they consume 26 g of chow per day and the compounds have no effect on food consumption.
as §7

[1] = dose 0.0005 % wt of chow, week 1
[2] = dose 0.002 % wt of chow, week 1
[3] = dose 0.002 % wt of chow, week 2
[4] = dose 0.002 % wt of chow, week 3
[5] = dose 0.002 % wt of chow, week 4
[6] = dose 0.005 % wt of chow, week 1

T1 sequence (H0W3H1 1-470): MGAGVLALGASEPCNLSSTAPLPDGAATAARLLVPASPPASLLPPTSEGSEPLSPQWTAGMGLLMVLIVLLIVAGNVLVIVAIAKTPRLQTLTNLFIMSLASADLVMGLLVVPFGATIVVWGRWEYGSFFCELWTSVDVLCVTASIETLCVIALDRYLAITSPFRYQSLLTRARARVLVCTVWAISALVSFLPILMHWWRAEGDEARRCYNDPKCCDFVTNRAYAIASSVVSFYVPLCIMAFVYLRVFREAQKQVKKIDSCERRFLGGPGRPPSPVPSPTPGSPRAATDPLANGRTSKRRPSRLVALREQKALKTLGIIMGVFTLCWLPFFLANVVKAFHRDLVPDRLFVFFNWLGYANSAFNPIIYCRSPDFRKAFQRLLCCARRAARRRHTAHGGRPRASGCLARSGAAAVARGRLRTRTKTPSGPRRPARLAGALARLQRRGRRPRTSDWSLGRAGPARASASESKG

COC(=O)C1(C(=O)OC)Oc2ccc(C[C@@H](C)NC[C@H](O)c3cccc(Cl)c3)cc2O1 (stereo in doubt) [CL1, (R* R*)-(±)-5-(2-((2-(3-chlorophenyl)-2-hydroxyethyl)amino)propyl)-1,3-benzodioxole-2,2-dicarboxylic acid, dimethyl ester hydrobromide]
EC50 (β1-receptors): 14 nM | EC50 (β2-receptors): 800 nM | Average Daily Food Consumption (ob/ob mice; dose 0.0005 % wt of chow): 5.6 g/animal | Change in weight (ob/ob mice; [1]): 0.5 grams | Change in weight (ob/ob mice; dose 0.0005 % wt of chow, week 2): 2.2 grams | Change in weight (ob/ob mice; dose 0.0005 % wt of chow, week 3): 3.2 grams | Change in weight (ob/ob mice; dose 0.0005 % wt of chow, week 4): 5.2 grams | Average Daily Food Consumption (ob/ob mice; dose 0.002 % wt of chow): 5.6 g/animal | Change in weight (ob/ob mice; [2]): -0.3 grams | Change in weight (ob/ob mice; [3]): 1.1 grams | Change in weight (ob/ob mice; [4]): 1.6 grams | Change in weight (ob/ob mice; [5]): 3.2 grams | Average Daily Food Consumption (ob/ob mice; dose 0.005 % wt of chow): 5.8 g/animal | Change in weight (ob/ob mice; [6]): -1.1 grams | Change in weight (ob/ob mice; dose 0.005 % wt of chow, week 2): -0.7 grams | Change in weight (ob/ob mice; dose 0.005 % wt of chow, week 3): -0.2 grams | Change in weight (ob/ob mice; dose 0.005 % wt of chow, week 4): 1.6 grams | Plasma Glucose Levels (db/db mice; dose 0.0005 % wt of chow, week 0 (before treatment)): 452 mg/100 ml | Plasma Glucose Levels (db/db mice; [1]): 162 mg/100 ml | Plasma Glucose Levels (db/db mice; dose 0.0005 % wt of chow, week 5): 164 mg/100 ml | Plasma Glucose Levels (db/db mice; dose 0.0005 % wt of chow, week 7): 17 mg/100 ml | Plasma Glucose Levels (db/db mice; dose 0.002 % wt of chow, week 0 (before treatment)): 453 mg/100 ml | Plasma Glucose Levels (db/db mice; [2]): 151 mg/100 ml | Plasma Glucose Levels (db/db mice; dose 0.002 % wt of chow, week 5): 150 mg/100 ml | Plasma Glucose Levels (db/db mice; dose 0.002 % wt of chow, week 7): 16 mg/100 ml | Plasma Glucose Levels (db/db mice; dose 0.005 % wt of chow, week 0 (before treatment)): 447 mg/100 ml | Plasma Glucose Levels (db/db mice; [6]): 148 mg/100 ml | Plasma Glucose Levels (db/db mice; dose 0.005 % wt of chow, week 5): 138 mg/100 ml | Plasma Glucose Levels (db/db mice; dose 0.005 % wt of chow, week 7): 18 mg/100 ml | Average Daily Food Consumption (fa/fa rats; dose 0.0006 % wt of chow): 25 g/animal | Change in weight (fa/fa rats; dose 0.0006 % wt of chow, week 1): 14 grams | Change in weight (fa/fa rats; dose 0.0006 % wt of chow, week 2): 20 grams | Change in weight (fa/fa rats; dose 0.0006 % wt of chow, week 3): 27 grams | Change in weight (fa/fa rats; dose 0.0006 % wt of chow, week 4): 26 grams | Average Daily Food Consumption (fa/fa rats; dose 0.002 % wt of chow): 25 g/animal | Change in weight (fa/fa rats; [2]): 1 grams | Change in weight (fa/fa rats; [3]): 2 grams | Change in weight (fa/fa rats; [4]): 3 grams | Change in weight (fa/fa rats; [5]): 4 grams | Average Daily Food Consumption (fa/fa rats; dose 0.006 % wt of chow): 25 g/animal | Change in weight (fa/fa rats; dose 0.006 % wt of chow, week 1): 10 grams | Change in weight (fa/fa rats; dose 0.006 % wt of chow, week 2): 4 grams | Change in weight (fa/fa rats; dose 0.006 % wt of chow, week 3): -15 grams | Change in weight (fa/fa rats; dose 0.006 % wt of chow, week 4): -8 grams
